Here are results for 11 compounds from ChEMBL document CHEMBL1127803 (J Med Chem, 1994).

Structures are written as SMILES. Where a SMILES comes first, the peptide text is derived from it. [ ]: non-standard residue; d: D form. The star is where a group is joined. Tyr(Nα,Nα-allyl2) = C=CCN(CC=C)[C@@H](Cc1ccc(O)cc1)C(=O)*; Aib = CC(C)(N)C(=O)O

Test [1] addresses Mu-type opioid receptor (Rattus norvegicus, UniProt P33535). As to the kind of experiment: Evaluated for inhibition of [3H]DAMGO binding from mu receptor in rat brain membranes. It is filed as cell membranes.
Test [2] addresses Mu-type opioid receptor (Cavia porcellus, UniProt P97266). As to the kind of experiment: Tested for agonist activity against mu opioid receptor in guinea pig ileum. Type of test: functional, tissue-based.
Test [3] has as its target T1, Delta-type opioid receptor (Mus musculus, UniProt P32300). As to the kind of experiment: Tested for agonist activity against delta opioid receptor mouse vas deferens. It is filed as functional, tissue-based.
For test [4], the target named is T1, Delta-type opioid receptor. As to the kind of experiment: Tested for inhibition of binding of [3H]DADLE to mouse brain membranes depleted of mu binding sites by pretreatment with irreversible ligand BIT for delta opioid receptor. On the set-up: species or system Membrane.

Chain of Mu-type opioid receptor (Cavia porcellus, UniProt P97266) (P97266 whole entry): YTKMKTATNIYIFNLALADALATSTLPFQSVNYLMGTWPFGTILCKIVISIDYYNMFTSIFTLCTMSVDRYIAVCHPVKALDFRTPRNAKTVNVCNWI
T1 sequence (P32300 whole entry): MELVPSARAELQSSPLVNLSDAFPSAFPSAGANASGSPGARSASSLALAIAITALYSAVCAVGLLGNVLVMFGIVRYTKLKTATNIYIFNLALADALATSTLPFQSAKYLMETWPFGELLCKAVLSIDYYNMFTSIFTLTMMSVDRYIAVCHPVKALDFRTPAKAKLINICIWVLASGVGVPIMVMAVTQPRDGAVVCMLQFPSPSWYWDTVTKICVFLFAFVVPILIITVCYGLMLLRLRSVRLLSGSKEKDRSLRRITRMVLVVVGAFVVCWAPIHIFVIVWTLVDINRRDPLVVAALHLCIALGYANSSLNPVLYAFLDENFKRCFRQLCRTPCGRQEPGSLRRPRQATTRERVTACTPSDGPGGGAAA
Chain of Mu-type opioid receptor (Rattus norvegicus, UniProt P33535) (P33535 whole entry): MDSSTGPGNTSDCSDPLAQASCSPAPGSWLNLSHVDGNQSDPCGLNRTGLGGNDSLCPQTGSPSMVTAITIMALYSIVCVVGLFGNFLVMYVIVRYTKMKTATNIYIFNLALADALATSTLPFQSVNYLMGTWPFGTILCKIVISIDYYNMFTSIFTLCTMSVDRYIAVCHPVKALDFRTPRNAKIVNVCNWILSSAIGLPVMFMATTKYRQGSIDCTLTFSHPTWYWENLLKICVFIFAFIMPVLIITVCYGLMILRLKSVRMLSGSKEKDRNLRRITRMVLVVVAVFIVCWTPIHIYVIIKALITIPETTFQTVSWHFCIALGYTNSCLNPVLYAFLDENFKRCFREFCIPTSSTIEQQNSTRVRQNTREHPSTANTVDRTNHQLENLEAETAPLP

One may read the IC50 as the midpoint of a concentration-inhibition curve. On to `C=CCN1C[C@@H](C)N(C(c2ccc(C(=O)N(CC)CC)cc2)c2cccc(OC)c2)C[C@@H]1C` (single isomer, unassigned), for which the half-inhibitory concentration (IC50) on Mu-type opioid receptor [1] amounted to 9140 nM; at Mu-type opioid receptor [2], 1520 nM.
Compound `C=CCN(CC=C)[C@@H](Cc1ccc(O)cc1)C(=O)NC(C)(C)C(=O)NC(C)(C)C(=O)N[C@@H](Cc1ccccc1)C(=O)N[C@@H](CC(C)C)C(=O)O.C=CCN1C[C@H](C)N([C@@H](c2ccc(C(=O)N(CC)CC)cc2)c2cccc(OC)c2)C[C@H]1C` ({Tyr(Nα,Nα-allyl2)}-[Aib][Aib]FL-OH) yielded an IC50 in test [3] of 3250 nM.
`C=CCN1C[C@@H](C)N([C@@H](c2ccc(C(=O)N(CC)CC)cc2)c2cccc(O)c2)C[C@@H]1C`: in test [4], the half-inhibitory concentration (IC50) is 0.49 nM.
In turn, `C=CCN1C[C@H](C)N([C@H](c2ccc(C(=O)N(CC)CC)cc2)c2cccc(OC)c2)C[C@H]1C` [SNC-80] came in with an IC50 at Mu-type opioid receptor [1] of 5710 nM.
Take `C=CCN1CC(C)N(C(c2ccc(C(=O)N(CC)CC)cc2)c2cccc(O)c2)CC1C` (racemic): the IC50 is 0.92 nM in test [4], 143 nM at Mu-type opioid receptor [2] and 0.2 nM in test [3].
With `C=CCN1C[C@H](C)N([C@@H](c2ccc(C(=O)N(CC)CC)cc2)c2cccc(OC)c2)C[C@H]1C`, the IC50 at Mu-type opioid receptor [1] stood at 2470 nM; on Mu-type opioid receptor [2] it was 5460 nM.
Turning to `C=CCN1CC(C)N([C@H](c2ccc(C(=O)N(CC)CC)cc2)c2cccc(OC)c2)CC1C` (single isomer, unassigned) [SNC-80], the IC50 at Mu-type opioid receptor [1] amounted to 9370 nM.
Take `C=CCN1C[C@H](C)N(C(c2ccc(C(=O)N(CC)CC)cc2)c2cccc(O)c2)C[C@H]1C` (single isomer, unassigned; (+)-1): the IC50 in test [4] was 0.31 nM.
Still for that read-out and setting: the result for `C=CCN1C[C@@H](C)N([C@H](c2ccc(C(=O)N(CC)CC)cc2)c2cccc(O)c2)C[C@@H]1C` reads 9.58 nM; that for `C=CCN1C[C@H](C)N(C(c2ccc(C(=O)N(CC)CC)cc2)c2cccc(O)c2)C[C@H]1C` (single isomer, unassigned; (+)-10), 5.96 nM.
For the compound `CC(C)[C@H](NC(=O)[C@H](CCC(=O)O)NC(=O)[C@H](Cc1ccccc1)NC(=O)[C@@H](C)NC(=O)[C@@H](N)Cc1ccc(O)cc1)C(=O)N[C@H](C(=O)NCC(=O)O)C(C)C` [DELTORPHIN], on Mu-type opioid receptor [2], the IC50 is 15000 nM.
